According to patent US6087375A, “Methods of treating or preventing thromboses” (priority 1999, dated 2000):

What was measured:
Format in all cases: binding
[1] = molecular target: human serum albumin (HSA) (Homo sapiens, UniProt P02768); assay: Mass spectrometric analysis of conjugation to HSA (HPLC/ESIMS); conditions: HSA 5 μM, 100 μM ester, 1 hour, room temperature
Procedure: (§1) All samples were analyzed using a high performance liquid chromatograph (HPLC) coupled in-line to an electrospray ionization (ESI) mass spectrometer (MS) which is termed HPLC/ESIMS. Some samples were also analyzed using a matrix-assisted laser desorption ionization (MALDI) time-of-flight (TOF) mass spectrometer which is termed (MALDI-TOFMS).
(§2) Samples for HPLC/ESIMS were either prepared as duplicate reaction samples or were part of the same reaction samples which were used in the ELISA assays described below. These samples were injected directly only the HPLC/ESIMS without any manipulation other than dilution with water, where the PBS, DMSO, and unreacted derivative molecules are separated from the protein-argatroban derivative molecule conjugate. Samples for MALDI-MS were first HPLC-purified and mixed 1:1 directly on the stainless steel analysis plate with a matrix of 10 mg/ml sinnapinic acid in 50% acetonitrile/50% water. The mixture was then dried with a gentle flow of air to allow for crystallization and inserted into the instrument for laser ionization.
(§3) The HPLC is a Hewlett Packard 1090 Series II liquid chromatogram with a diode array detector. The column used for separation is a Brownlee aquapore OD-300 reversed phase C18 column, 1 mm×10 cm, 300 Å pore size, 7 μm particle diameter. The mass spectrometer to which the HPLC is connected using fused Silica capillary tubing is a Sciex API-300 triple quadrupole mass spectrometer with an ionspray source to allow for atmospheric pressure ionization of a liquid flowing continuously into the instrument. The MALDI-TOFMS is a Perceptive Biosystems Voyager Elite DE instrument run in the linear mode.

[2] = test system: rabbit erythrocyte membrane and cytosolic proteins; assay: Immunoblotting and ELISA of rabbit erythrocyte ghost and cytosol fractions after conjugation
Procedure: Material and Methods: Rabbit erythrocytes were conjugated with the Argatroban-C6 NHS ester compound (compound YL-015-35). To do so, rabbit erythrocytes were isolated from fresh, citrated blood. In brief, an aliquot of blood was centrifuged for 5 minutes at 1800 rpm (Sorvall RC-5B, SH-3000 rotor). The buffy coat was pipetted off the top layer of the cell pellet and the remaining erythrocytes were washed four times with PBS, pH 7.4. Before the last wash, an aliquot of cells was removed for counting. The washed erythrocytes were resuspended at a density of 1×10^9 cells/mL. The total volume of cells labeled per sample was 3 mL. […] After the labeling reaction, the cells were centrifuged 4 minutes at 1800 rpm and the supernatant was discarded. The cells were resuspended in 10 ml of 0.5% DMSO/PBS and pelleted. The cells were washed one more time with 10 ml of PBS.
To quench any remaining reactive esters, the cells were then resuspended in 6 mg/mL BSA/PBS (Sigma, A-2934, lot 93HO291) and gently agitated at room temperature for 30 minutes. After quenching, the cells were washed five times with PBS. Cell yields were determined by cell counting.
After conjugation, the cells were hypotonically lysed and the ensuing membrane (ghost) and cytosol fractions were assayed by immunoblotting and ELISA. Specifically, conjugated erythrocyte pellets were chilled on ice for 5 minutes. Cells were then lysed on ice with 12 ml of ice-cold 5 mM phosphate buffer, pH 8.0 (PB) containing 1 mM Pefabloc and 40 μM leupeptin. Lysates were briefly vortexed and then centrifuged for 20 minutes at 4° C. at 15,000 rpm (SS-34, Sorvall RC-5B). The supernatant (hemolysate) was pipetted off the pellet, labeled and stored at 4° C. The pellets (ghosts) were washed four times with 12 ml of cold PBS and centrifuged as above. The protein content of the ghosts and hemolysates was determined by using the Micro BCA kit (Pierce; catalog no. 23231). Cell fractions were stored at -80° C.
Samples were then solubilized in 2×reducing cocktail (5% SDS, 50% glycerol, 0.5 M 2-mercaptoethanol in 0.25 M Tris-HCI, pH 6.8). […]

[3] = molecular target: rabbit serum albumin (RSA) (Oryctolagus cuniculus, UniProt P49065); assay: Mass spectrometric analysis of conjugation to RSA (HPLC/ESIMS, MALDI-TOFMS); conditions: for average argatroban derivative molecules added per RSA molecule / range of argatroban derivative molecules added per RSA molecule: MALDI-MS
Procedure: as §1, §2, §3
The conjugate was prepared according to the following protocol. […] Sham samples consist of the RSA incubated for the same length of time at RT in 2% DMSO in PBS. Each of the samples was then concentrated to a final volume of 1.5 mL using Amicon Centricon 30 filtration/concentration devices. The concentrated samples were then desalted on Pierce's 5 ML Kwiksep excellulose plastic desalting columns. The excluded volumes containing RSA or argatroban-C6-RSA were then subjected to BCA microprotein estimation and lyophilization. In addition, these samples were analyzed by LC/MS, sandwich ELISA assays (described above) to measure thrombin binding and immunoblotting.

[4] = concentration study, 10 μM ester, RSA 4.5 μM, HPLC/ESIMS

rabbit serum albumin (RSA), sequence (P49065 25-608): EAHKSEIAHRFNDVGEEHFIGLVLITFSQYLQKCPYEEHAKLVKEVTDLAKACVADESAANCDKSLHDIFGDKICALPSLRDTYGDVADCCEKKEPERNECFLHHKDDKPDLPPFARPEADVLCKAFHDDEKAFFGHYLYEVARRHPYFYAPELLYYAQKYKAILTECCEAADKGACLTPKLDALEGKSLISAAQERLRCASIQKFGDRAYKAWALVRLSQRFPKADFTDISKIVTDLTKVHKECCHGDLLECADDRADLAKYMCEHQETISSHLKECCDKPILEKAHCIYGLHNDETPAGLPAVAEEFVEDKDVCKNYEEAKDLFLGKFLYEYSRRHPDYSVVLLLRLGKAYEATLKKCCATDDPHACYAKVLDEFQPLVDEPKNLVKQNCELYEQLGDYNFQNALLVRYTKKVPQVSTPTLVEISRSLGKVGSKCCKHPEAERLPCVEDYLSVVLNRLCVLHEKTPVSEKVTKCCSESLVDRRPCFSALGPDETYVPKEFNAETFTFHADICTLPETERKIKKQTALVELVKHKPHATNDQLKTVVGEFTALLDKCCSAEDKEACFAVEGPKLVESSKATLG
human serum albumin (HSA), sequence (P02768 25-609): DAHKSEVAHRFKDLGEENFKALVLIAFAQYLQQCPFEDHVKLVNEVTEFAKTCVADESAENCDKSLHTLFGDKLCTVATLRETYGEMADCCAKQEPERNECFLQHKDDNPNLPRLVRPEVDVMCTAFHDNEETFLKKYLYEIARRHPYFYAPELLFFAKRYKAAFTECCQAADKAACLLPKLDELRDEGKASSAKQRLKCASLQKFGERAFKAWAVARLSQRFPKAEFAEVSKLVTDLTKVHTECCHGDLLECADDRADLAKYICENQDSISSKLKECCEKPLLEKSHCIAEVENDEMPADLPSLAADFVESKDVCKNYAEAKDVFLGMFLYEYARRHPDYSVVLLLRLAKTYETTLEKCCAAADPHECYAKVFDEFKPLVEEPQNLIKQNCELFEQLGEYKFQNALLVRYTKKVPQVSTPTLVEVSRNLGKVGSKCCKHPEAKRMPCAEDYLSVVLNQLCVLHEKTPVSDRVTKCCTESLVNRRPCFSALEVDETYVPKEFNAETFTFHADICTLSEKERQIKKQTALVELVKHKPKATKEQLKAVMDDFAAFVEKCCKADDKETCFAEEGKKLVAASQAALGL

argatroban derivative molecules added [3, 4]: 1 argatroban derivative molecule
fraction of the RSA molecules to which 1 argatroban derivative molecule is added [3, 4]: ~ 50%
major species of RSA molecules ([3]; concentration study, 15 μM ester, RSA 4.5 μM): majority of RSA molecules are +1
major species of RSA molecules ([3]; concentration study, 20 μM ester, RSA 4.5 μM): majority of RSA molecules are +1 and +2
major species of RSA molecules ([3]; concentration study, 25 μM ester, RSA 4.5 μM): majority of RSA molecules are +1 and +2
major species of RSA molecules ([3]; concentration study, 100 μM ester, RSA 4.5 μM): no major species
SMILES: CC1CNc2c(cccc2S(=O)(=O)NC(CCCN=C(N)N)C(=O)N2CCC(C)CC2C(=O)NCCCCCC(=O)ON2C(=O)CCC2=O)C1 (stereo not shown) [compound YL-015-35]
covalent addition of argatroban derivative molecules per HSA molecule [1]: 1-8 argatroban derivative molecules per HSA molecule
labeled proteins belonging to the glycophorin family ([2]; capture ELISA assay): a portion of the thrombin inhibitor-labeled proteins belong to the glycophorin family of proteins
presence of derivatized argatroban molecules on cytosolic proteins ([2]; rabbit erythrocytes, cytosol fraction): at the limit of detection
covalent modification of erythrocyte membrane proteins ([2]; rabbit erythrocytes, immunoblotting): numerous erythrocyte membrane proteins were covalently modified
covalent addition of argatroban derivative molecules per RSA molecule ([3]; HPLC/ESIMS, RSA 4.5 μM, 100 μM ester, 1 hour, room temperature): 1-8 argatroban derivative molecules per RSA molecule
covalent addition of argatroban derivative molecules per RSA molecule ([3]; HPLC/ESIMS, RSA 15 μM, 200 μM ester): 1-9 argatroban derivative molecules per RSA molecule
covalent addition of argatroban derivative molecules per RSA molecule ([3]; HPLC/ESIMS, RSA 30 μM, 300 μM ester): 1-9 argatroban derivative molecules per RSA molecule
average argatroban derivative molecules added per RSA molecule ([3]; RSA 15 μM, 200 μM ester): 5.6 argatroban derivative molecules added per RSA molecule
range of argatroban derivative molecules added per RSA molecule ([3]; RSA 15 μM, 200 μM ester): 1-10 argatroban derivative molecules added per RSA molecule
average argatroban derivative molecules added per RSA molecule ([3]; RSA 30 μM, 300 μM ester): 5.4 argatroban derivative molecules added per RSA molecule
range of argatroban derivative molecules added per RSA molecule ([3]; RSA 30 μM, 300 μM ester): 1-10 argatroban derivative molecules added per RSA molecule
argatroban derivative molecules added ([3]; concentration study, 1 μM ester, RSA 4.5 μM, HPLC/ESIMS): no detectable argatroban derivative molecules
argatroban derivative molecules added per RSA molecule ([3]; concentration study, 15 μM ester, RSA 4.5 μM, HPLC/ESIMS): 0-3 argatroban derivative molecules per RSA molecule
argatroban derivative molecules added per RSA molecule ([3]; concentration study, 20 μM ester, RSA 4.5 μM, HPLC/ESIMS): 1-3 argatroban derivative molecules per RSA molecule
argatroban derivative molecules added per RSA molecule ([3]; concentration study, 25 μM ester, RSA 4.5 μM, HPLC/ESIMS): 1-4 argatroban derivative molecules per RSA molecule
argatroban derivative molecules added per RSA molecule ([3]; concentration study, 100 μM ester, RSA 4.5 μM, HPLC/ESIMS): 2-10 argatroban derivative molecules per RSA molecule
